Data: PMC11879280, “Antimicrobial activity of peptoids against Metallo-β-lactamase-producing Klebsiella pneumoniae, Acinetobacter baumannii, Pseudomonas aeruginosa, and other WHO priority pathogens, including Candida auris” (Journal of Applied Microbiology, 2025)
Square brackets hold non-standard residues; d marks the D form. Peptide text beside a SMILES is read from it. Nspe = C[C@H](NCC(=O)O)c1ccccc1; NDecylGly = CCCCCCCCCCNCC(=O)O; Nlys = NCCCCNCC(=O)O

What was measured:
[1] = test system: C. auris CBS12373; assay: Checkerboard microdilution synergy test; assay type: cell-based, Candida auris
Experimental: (§1) The checkerboard microdilution test was performed to determine the fractional inhibitory concentration (FIC) of selected antimicrobials and assess whether the combination had synergistic, antagonistic, or indifferent effects (Anon [2016]) against strains of K. pneumoniae or C. auris. […] Additionally, a strain susceptible to ciprofloxacin was tested to observe the outcome of its combination with TM8 as a representative case from susceptible isolates. […] Then, 10 µl of bacteria (5 × 10^6 CFU ml^−1) or C. auris (2.5 × 10^4 CFU ml^−1) were added to each well, except for the sterility control well. […] The sterility control wells contained only MHB (or RPMI in case of C. auris), and the growth control contained 110 µl of microbial inoculum with no antimicrobials. Subsequently, the plates were incubated for 18- 24 hours at 36 ± 1 °C.
(§2) The FIC for each combination interaction was calculated as follows:
(§3) Then, the summation of FIC (ƩFIC) was calculated for each antimicrobial combination as follows: ƩFIC = FICA + FICB. The results were interpretated as follows: Synergy if ƩFIC ≤ 0.5; Additive if 0.5<ƩFIC ≤ 1; Indifference if […] ≤ 4; and Antagonism if ƩFIC > 4 (Odds [2003]). All antimicrobial synergy experiments were repeated in at least two independent runs.

[2] = test system: C. auris CBS10913; assay: Checkerboard microdilution synergy test; assay type: cell-based, Candida auris
Experimental: as §1, §2, §3

[3] = test system: C. auris CBS 10913; assay: Time-kill kinetics; assay type: cell-based, Candida auris; details: RPMI, 35°C, three independent runs
Experimental: Killing kinetics (time-kill) were evaluated as described previously (Lum et al. [2015]). […] At set intervals (0, 0.5, 1, 1.5, 2, 2.5, 3, 4, 5, 6, 12, and 24 h), 100 µl samples were serially diluted in PBS and plated on Sabouraud dextrose agar (SDA; Oxoid, UK) with 0.5% polysorbate 80 (Chem-supply, SA, Australia). CFUs were enumerated, with a yeast growth control processed similarly. Results were presented from three independent runs.

[4] = as low as; ref Nielsen et al. [2022]; cited from earlier work
Excerpt: Lipopeptoids can self-assemble into micellar macromolecules due to the hydrophobic tail domains driven by the intermolecular hydrophobic interactions. […] In a ...

[5] = test system: C. auris CBS10913; assay: Membrane integrity by flow cytometry (SYTO 9 / PI); assay type: cell-based, Candida auris
Experimental: Afterwards, the cells were stained with SYTO 9 (7.5 µmol l^−1) and PI (30 µmol l^−1) for an additional 15 min in the dark at room temperature. Following washing, samples were then analysed for membrane integrity on a BD FACSymphony^TM A3, with a minimum of 10 000 events recorded per sample.

[6] = test system: Gram-positive bacteria (Enteroc. faecalis and S. aureus)
How it was run: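 Cation-adjusted MHB for antibiotics, plain MHB for peptidomimetics; 5 × 10^5 CFU ml^−1; 16–20 h at 37°C, 120 rpm. Geometric mean MIC across pathogens calculated for peptoids.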

[7] = test system: K. pneumoniae JIE2709; assay: Checkerboard microdilution synergy test; assay type: cell-based, Klebsiella pneumoniae
Experimental: (§4) Then, 10 µl of bacteria (5 × 10^6 CFU ml^−1) or C. auris (2.5 × 10^4 CFU ml^−1) were added to each well, except for the sterility control well. […] The sterility control wells contained only MHB (or RPMI in case of C. auris), and the growth control contained 110 µl of microbial inoculum with no antimicrobials. Subsequently, the plates were incubated for 18- 24 hours at 36 ± 1 °C.
as §2
(§5) Then, the summation of FIC (ƩFIC) was calculated for each antimicrobial combination as follows: ƩFIC = FICA + FICB. […] All antimicrobial synergy experiments were repeated in at least two independent runs.

[8] = test system: K. pneumoniae JIE2713; assay: Checkerboard microdilution synergy test; assay type: cell-based, Klebsiella pneumoniae
Experimental: as §4, §2, §5

For `CCCCCCCCCCNCC(=O)N(CCCCN)CC(=O)N(CC(=O)N(CC(=O)N(CCCCN)CC(=O)N(CC(=O)N(CC(N)=O)[C@@H](C)c1ccccc1)[C@@H](C)c1ccccc1)[C@@H](C)c1ccccc1)[C@@H](C)c1ccccc1` [TM8] (H-[NDecylGly][Nlys][Nspe][Nspe][Nlys][Nspe][Nspe]-NH2), the “MIC of TM8 (alone, checkerboard)” value [1] was 3.9 µg/mL, the FICTM8 ([1]; TM8 with Fluconazole) was 0.5 and the “MF of TM8 (modulation factor)” value ([1]; TM8 with Fluconazole) was 2. The ƩFIC ([1]; TM8 with Fluconazole) was 0.563, the “MIC of TM8 (alone, checkerboard)” value [2] was 7.813 µg/mL and the FICTM8 ([2]; TM8 with Fluconazole) was 0.5. For the same compound, the “MF of TM8 (modulation factor)” value ([2]; TM8 with Fluconazole) was 2, the ƩFIC ([2]; TM8 with Fluconazole) was 0.563 and the “Time to 3-log reduction” value ([3]; 1× MIC) was no more than 6 h. For the same compound, the “Time to complete killing of the yeast cells” value ([3]; 1× MIC) was no more than 12 h, the “Time to fungicidal activity” value ([3]; 4× MIC) was no more than 2 h and the “Concentration at which self-assembly into an ellipsoidal form is found” value [4] was 1 µg/mL. The Dead cells ([5]; TM8 at its MIC or 1% Triton X-100, 90 min, PBS control 0.2%) was 3.9%, the “SYTO 9 fluorescent signal of C. auris” value ([5]; TM8 at its MIC, 90 min, 37°C, PBS, PBS control 51.7%) was 25.5% and the “Cells doubly stained with SYTO 9 and PI” value ([5]; TM8 at its MIC, 90 min, PBS control 0.7%) was 21.5%. For the same compound, the MIC range [6] was 3.9 to 7.8 µg/mL, the “MIC of TM8 (alone, checkerboard)” value [7] was 15.625 µg/mL and the FICTM8 ([7]; TM8 with Cefotaxime) was 0.5. For the same compound, the “MF of TM8 (modulation factor)” value ([7]; TM8 with Cefotaxime) was 2, the Outcome ([7]; TM8 with Cefotaxime) was “Additive (Additive if 0.5<ƩFIC ≤ 1)” and the ƩFIC ([7]; TM8 with Cefotaxime) was 1. For the same compound, the FICTM8 ([7]; TM8 with Ciprofloxacin) was 0.5, the “MF of TM8 (modulation factor)” value ([7]; TM8 with Ciprofloxacin) was 2 and the Outcome ([7]; TM8 with Ciprofloxacin) was “Additive (Additive if 0.5<ƩFIC ≤ 1)”. The ƩFIC ([7]; TM8 with Ciprofloxacin) was 1, the FICTM8 ([7]; TM8 with Meropenem) was 0.5 and the “MF of TM8 (modulation factor)” value ([7]; TM8 with Meropenem) was 2. For the same compound, the ƩFIC ([7]; TM8 with Meropenem) was 0.625, the “MIC of TM8 (alone, checkerboard)” value [8] was 15.625 µg/mL and the FICTM8 ([8]; TM8 with Aztreonam) was 0.5. For the same compound, the “MF of TM8 (modulation factor)” value ([8]; TM8 with Aztreonam) was 2, the “MIC of TM8 + DrugB” value ([8]; TM8 with Aztreonam) was 7.8125 µg/mL and the ƩFIC ([8]; TM8 with Aztreonam) was 1. For the same compound, the FICTM8 ([8]; TM8 with Cefotaxime) was 0.5, the “MF of TM8 (modulation factor)” value ([8]; TM8 with Cefotaxime) was 2 and the ƩFIC ([8]; TM8 with Cefotaxime) was 1. For the same compound, the FICTM8 ([8]; TM8 with Ciprofloxacin) was 0.25, the “MF of TM8 (modulation factor)” value ([8]; TM8 with Ciprofloxacin) was 4 and the ƩFIC ([8]; TM8 with Ciprofloxacin) was 0.273. For the same compound, the FICTM8 ([8]; TM8 with Gentamicin) was 0.5, the “MF of TM8 (modulation factor)” value ([8]; TM8 with Gentamicin) was 2 and the ƩFIC ([8]; TM8 with Gentamicin) was 1.
